{"source": "patent US20230141887A1", "about": "“CRYSTAL FORM OF DIAZASPIROPYRAN COMPOUND” (MEDSHINE DISCOVERY INC., priority 2020, published 2023)", "key": {"[1]": {"target": "T1, FLT3(ITD) (Homo sapiens, UniProt P36888)", "T1 construct": "fused on or other part: DNA tag for the qPCR read-out (the KINOMEscan format)", "T1 sequence (P36888 1-993)": "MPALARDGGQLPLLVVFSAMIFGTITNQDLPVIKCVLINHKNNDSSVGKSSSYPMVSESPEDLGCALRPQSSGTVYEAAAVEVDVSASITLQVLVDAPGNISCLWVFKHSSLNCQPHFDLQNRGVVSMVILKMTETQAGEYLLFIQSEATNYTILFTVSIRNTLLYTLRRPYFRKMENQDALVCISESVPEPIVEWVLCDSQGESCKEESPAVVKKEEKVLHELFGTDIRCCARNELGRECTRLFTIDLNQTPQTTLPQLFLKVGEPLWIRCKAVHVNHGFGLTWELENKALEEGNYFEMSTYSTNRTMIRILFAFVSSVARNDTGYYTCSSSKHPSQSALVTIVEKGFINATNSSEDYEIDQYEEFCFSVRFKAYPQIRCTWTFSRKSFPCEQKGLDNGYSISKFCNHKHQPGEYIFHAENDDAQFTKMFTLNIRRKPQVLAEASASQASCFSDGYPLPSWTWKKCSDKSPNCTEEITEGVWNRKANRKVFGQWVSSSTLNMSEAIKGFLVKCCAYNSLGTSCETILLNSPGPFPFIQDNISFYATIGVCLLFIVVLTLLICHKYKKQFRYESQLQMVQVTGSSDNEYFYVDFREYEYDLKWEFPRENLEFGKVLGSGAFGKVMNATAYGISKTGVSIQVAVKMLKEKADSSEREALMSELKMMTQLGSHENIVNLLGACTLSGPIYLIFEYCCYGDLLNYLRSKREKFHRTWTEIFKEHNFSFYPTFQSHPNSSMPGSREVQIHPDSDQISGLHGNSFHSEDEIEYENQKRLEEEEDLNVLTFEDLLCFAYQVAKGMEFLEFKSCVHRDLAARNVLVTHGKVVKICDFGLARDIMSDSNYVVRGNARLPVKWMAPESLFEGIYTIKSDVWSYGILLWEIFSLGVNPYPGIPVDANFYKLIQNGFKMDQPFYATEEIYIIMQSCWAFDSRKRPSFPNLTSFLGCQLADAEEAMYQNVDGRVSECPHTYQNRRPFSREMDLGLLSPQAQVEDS", "format": "binding"}, "[2]": {"target": "T2, AXL (Homo sapiens, UniProt P30530)", "T2 construct": "purchased Promega", "T2 sequence (P30530 26-894)": "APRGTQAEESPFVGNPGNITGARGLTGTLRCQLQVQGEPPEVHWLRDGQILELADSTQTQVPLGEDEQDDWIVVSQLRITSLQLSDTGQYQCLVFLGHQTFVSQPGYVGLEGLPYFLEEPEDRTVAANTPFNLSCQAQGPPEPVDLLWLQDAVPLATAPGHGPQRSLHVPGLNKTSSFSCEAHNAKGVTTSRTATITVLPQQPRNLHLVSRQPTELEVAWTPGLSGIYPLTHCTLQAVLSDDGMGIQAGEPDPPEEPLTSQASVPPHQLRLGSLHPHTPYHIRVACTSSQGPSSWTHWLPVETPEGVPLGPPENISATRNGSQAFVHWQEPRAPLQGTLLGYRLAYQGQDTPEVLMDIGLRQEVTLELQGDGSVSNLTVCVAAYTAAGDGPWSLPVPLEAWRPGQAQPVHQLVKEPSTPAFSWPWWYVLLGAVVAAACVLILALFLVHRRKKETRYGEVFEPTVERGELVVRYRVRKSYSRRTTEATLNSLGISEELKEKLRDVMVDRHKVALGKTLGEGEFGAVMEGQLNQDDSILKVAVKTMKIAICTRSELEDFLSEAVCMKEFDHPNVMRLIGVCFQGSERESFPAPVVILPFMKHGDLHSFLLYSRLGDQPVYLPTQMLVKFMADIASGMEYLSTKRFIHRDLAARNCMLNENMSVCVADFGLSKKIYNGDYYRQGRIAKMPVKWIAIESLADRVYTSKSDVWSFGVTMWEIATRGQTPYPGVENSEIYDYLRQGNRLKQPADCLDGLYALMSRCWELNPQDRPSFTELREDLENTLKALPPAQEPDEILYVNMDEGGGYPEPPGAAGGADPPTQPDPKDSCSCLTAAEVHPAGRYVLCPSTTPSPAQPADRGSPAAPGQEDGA", "assay": "Assay of AXL inhibitory activity in vitro (Promega AXL Kinase Enzyme System, ADP-Glo)", "format": "biochemical", "conditions": "50 μmol/L ATP, 30° C., 60 minutes", "procedure": "AXL Kinase Enzyme System (kinase system) was purchased from Promega. Envision multi-label Analyzer (PerkinElmer).\nThe enzyme, substrate, ATP and inhibitors were diluted using the buffer solution in the kit.\nThe assay was carried out in duplicate. 1 μl of the inhibitors of each concentration gradient, 2 μl of the AXL enzyme (6 ng), and a 2 μl mixture of the substrate and ATP (50 μmol/L ATP, 0.2 μg/μL Axltide) were added to the microplate. […] After the reaction was completed, 5 μL of ADP-Glo reagent was added to each well. The system was further reacted at 30° C. for 40 minutes. After the reaction was completed, 10 μL of kinase detection reagent was added to each well and reacted at 30° C. for 30 minutes. The chemiluminescence was then read by the PerkinElmer Envision multi-label analyzer with an integration time of 0.5 seconds.\nThe original data was converted into an inhibition rate, and the IC50 value can be obtained by four-parameter curve fitting."}}}
{"smiles": "CCc1nc(C(N)=O)c(Nc2ccc(N3CCC4(CCN(C)CC4)CC3)c(C)c2)nc1NC1CCOCC1.O=C(O)C(F)(F)F", "values": [{"measurement": "Kd", "setting": "[1]", "value": 3.6, "unit": "nM"}, {"measurement": "IC50", "setting": "[2]", "value": 1.22, "unit": "nM"}]}
